# Test results taken from US10342804B2, “Steroid compound for use in the treatment of hepatic encephalopathy” (Umecrine Cognition AB, priority 2014, dated 2019).
# Experiments:
# blood ammonia = assay: Blood ammonia, hyperammonemic rats (Example 12); type: in vivo, rat; conditions: 20 mg/Kg
# Procedure: Male Wistar rats (140-160 g) were made hyperammonemic by feeding them a diet containing ammonium acetate (30% by weight) (Felipo et al, European Journal of Biochemistry, 1988, 176, 567-571).
# 3α-ethynyl-3β-hydroxyandrostan-17-one oxime in sesame oil was administered by subcutaneous injections in the back of the rats, once daily. Two different sets of experiments were performed in hyperammonemic rats. In the first set four groups of rats were used: 1) control rats injected with vehicle; 2) hyperammonemic rats injected with vehicle; 3) control rats injected with 20 mg/Kg of 3α-ethynyl-3β-hydroxyandrostan-17-one oxime and 4) hyperammonemic rats injected with 20 mg/Kg of 3α-ethynyl-3β-hydroxyandrostan-17-one oxime.
# Blood ammonia was measured using the kit II Ammonia Arkray test (PocketChem BA, Arkray) using 20 μL of fresh blood following manufacturer's specifications.
# [1] = test system: receptors, ion channels and enzymes, including all major classes of neurotransmitter receptors; assay: Binding selectivity screen, 113 targets (Perkin Elmer customized screen); conditions: 10 μM, duplicate; neurotransmitter related receptors, steroid receptors, peptide receptors
# Procedure: The binding of 3α-ethynyl-3β-hydroxyandrostan-17-one oxime was determined for receptors, ion channels and enzymes, including all major classes of neurotransmitter receptors. In total 113 targets were tested in duplicate with 3α-ethynyl-3β-hydroxyandrostan-17-one oxime at 10 μM (Perkin Elmer, Customized screen). Binding activity was defined as greater than or equal to 50% inhibition of ligand binding.
compound,measurement,setting,value
C#C[C@]1(O)CC[C@@]2(C)C(CC[C@@H]3[C@@H]2CC[C@]2(C)/C(=N\O)CC[C@@H]32)C1 (stereo partly drawn) [3α-ethynyl-3β-hydroxyandrostan-17-one oxime],Blood ammonia levels,blood ammonia,139 ± 14 µM
same,Binding activity (greater than or equal to 50% inhibition of ligand binding),[1],did not show binding activity
